Consider six compounds from patent US11084830B2, “Five-membered non aromatic ring-pyrimidine HIV-1 reverse transcriptase inhibitor, preparation method therefor, and uses thereof” (priority 2018, dated 2021).

Series [1] can be described thus: Cytotoxicity in mock-infected MT-4 cells, MTT method. The note with it: human, CC50. Type of series: cell-based. How it is done: (§1) The MTT method was described briefly as follows: stock solutions (10×final concentration) of test compounds were added in 25 μL volumes to two series of triplicate wells in order to allow simultaneous evaluation of the effects on mock- and HIV-infected cells. Using a Biomek 3000 robot (Beckman Instruments, Fullerton, Calif.), serial five-fold dilutions of the test compounds (final 200 μL volume per well) were made directly in flat-bottomed 96-well microtiter trays, including untreated control HIV-1 and mock-infected cell samples for each sample. HIV-1 (IIIB) and mutant HIV-1 strains stock (50 μL at 100-300 CCID50) or culture medium was added to either the infected or mock-infected wells of the microtiter tray. Mock-infected cells were used to evaluate the effect of test compounds on uninfected cells to assess cytotoxicity. Exponentially growing MT-4 cells were centrifuged for 5 min at 1000 rpm and the supernatant was discarded. The MT-4 cells were resuspended at 6×10^5 cells/mL, and 50 μL aliquots were transferred to the microtiter tray wells. At five days after infection, the viability of mock- and HIV-infected cells was determined spectrophotometrically by means of MTT assay.
(§2) The MTT assay is based on the reduction of yellow-colored MTT (Acros Organics, Geel, Belgium) by mitochondrial dehydrogenase of metabolically active cells to form a blue-purple formazan that can be measured spectrophotometrically. The absorbances were read in an eight-channel computer-controlled photometer, at the wavelengths of 540 and 690 nm. All data were calculated using the median optical density (OD) value of three wells.
(In general: Formazan colour is commonly taken as a measure of viable cells.)

In the next series the test system is mock-infected MT-4 cells. The description is as above. Type of series: cell-based. The following applies: human, 5 days. How it is done:
as §1, §2

The subject of series [2] is NNRTI-resistant double-mutant strain K103N+Y181C (RES056). The series can be described thus: microbe, parasite or virus in culture. Type of series: cell-based, HIV-1. The following applies: for EC50: Human immunodeficiency virus 1, MT4, read-out: EC50 RES056; for SI RES056: selectivity index, ratio of CC50/EC50, strain RES056. How it is done:
(§3) Antiviral potency was evaluated in MT-4 cell cultures infected with WT HIV-1 strain (IllB) as well as cells infected with a panel of NNRTI-resistant double-mutant strain K103N+Y181C (RES056).
(§4) Selected compounds were screened for inhibitory activity against HIV-1 using MTT method as describe previously by Christophe. Pannecouque et al. Nat. Protoc. […] And in vitro anti-HIV activity of compounds were supported by Rega Institute for Medical Research. The MTT assay is based on the reduction of the yellow colored 3-(4,5-dimethylthiazol-2-yl)-2,5-diphenyltetrazolium bromide (MTT) by mitochondrial dehydrogenases of metabolically active cells to a blue formazan which can be measured spectrophotometrically. Tested optical density served as an indicator for live cells, and survival rate can be concluded by testing the optical density of 540 nm and 690 nm. MT-4 cells infected with HIV-1 can only survive for 5 to 7 days without any treatment, but when HIV-1 inhibitors were added, they can protect MT-4 cell from cytopathic. Serial solution of compounds was added to MT-4 cells after infected with HIV-1, MTT method was used to detect the survival rate after culture for 5 to 7 days.
(§5) (1) MT-4 cells infected with HIV-1 viral strains (IIIB, Y181C/K103N) were provided by Rega Institute for Medical Research, Katholieke Universiteit Leuven, Belgium.
(§6) (3) Preparation of compounds: Stock solutions (10×final concentration) of test compounds is diluted with double distilled H2O for 5 folds and 5 concentrations of one compound are prepared.
(§7) (5) Test method (MTT method): Serial five-fold dilutions of test compounds were added to cultured MT-4 cells infected with HIV-1, after 5 to 7 days, MTT was added and cultured for a few hours.
as §1, with “HIV-1 (IIIB) and mutant HIV-1 strains stock (50 μL at 100-300 CCID50) or culture medium was added to either the infected or mock-infected wells of the microtiter tray.” left out, “The MT-4 cells were resuspended at 6×10^5 cells/mL, and 50 μL aliquots were transferred to the microtiter tray wells.” left out
as §2

In a further series the test system is WT HIV-1 strain (IIIB). The experiment in a line: Anti-HIV-1 activity in MT-4 cells, MTT method, wild-type strain IIIB. In kind it is cell-based. The note with it: for SI IIIB: selectivity index, ratio of CC50/EC50, strain IIIB. How it is done:
as §3, §4, §5, §6, §7
as §1, with “HIV-1 (IIIB) and mutant HIV-1 strains stock (50 μL at 100-300 CCID50) or culture medium was added to either the infected or mock-infected wells of the microtiter tray.” left out, “The MT-4 cells were resuspended at 6×10^5 cells/mL, and 50 μL aliquots were transferred to the microtiter tray wells.” left out
as §2

Broadly, the CC50 is the concentration giving 50% cytotoxicity. As a reminder, the EC50 is the concentration that produces a half-maximal response. Turning to `Cc1cc(C#N)cc(C)c1Oc1nc(NC2CCN(Cc3ccc(S(N)(=O)=O)cc3)CC2)nc2c1CCC2` [Compound C1, 4-((4-((4-(4-cyano-2,6-dimethylphenoxy)-6,7-dihydro-5H-cyclopenta[d]pyrimidin-2-yl)amino)piperidin-1-yl)methyl)benzenesulfonamide], in series [1], the CC50 at 5 days is above 200000 nM. Further, the CC50 in the series with mock-infected MT-4 cells was above 234000 nM. In series [2], the EC50 was found to be 25.8 nM and the “SI RES056” value was above 9091. Moreover, the “fold more potent than ETR” value in the series on WT HIV-1 strain (IIIB) (EC50 against HIV-1 IIIB compared with ETR) is recorded as “about 4.6 fold”.

On to `Cc1cc(C#N)cc(C)c1Oc1nc(NC2CCN(Cc3ccc(S(N)(=O)=O)cc3)CC2)nc2c1SCC2` [Compound A1, 4-((4-((4-(4-cyano-2,6-dimethylphenoxy)-6,7-dihydrothieno[3,2-d]pyrimidin-2-yl)amino)piperidin-1-yl)methyl)benzenesulfonamide], for which, in the series with mock-infected MT-4 cells, the midpoint of cytotoxicity, the CC50, lay at 19900 ± 10100 nM. Moreover, in series [2], the EC50 turned out to be 28.8 ± 1.2 nM and the “SI RES056” value is 692. In addition, the “SI IIIB” value in the series on WT HIV-1 strain (IIIB) is 4584.

In the series with mock-infected MT-4 cells, `Cc1cc(C#N)cc(C)c1Oc1nc(NC2CCN(Cc3ccc(S(C)(=O)=O)cc3)CC2)nc2c1CSC2` [Compound D2, 3,5-dimethyl-4-((2-((1-(4-(methylsulfonyl)benzyl)piperidin-4-yl)amino)-5,7-dihydrothieno[3,4-d]pyrimidin-4-yl)oxy)benzonitrile] showed a half-maximal cytotoxic concentration (CC50) of 45300 ± 31100 nM. Besides, in series [2], the EC50 worked out at 170 ± 32 nM and the “SI RES056” value is given as 266. Also, the “SI IIIB” value in the series with WT HIV-1 strain (IIIB) is on record as 11690.

Turning to `Cc1cc(C#N)cc(C)c1Oc1nc(NC2CCN(Cc3ccc(S(C)(=O)=O)cc3)CC2)nc2c1SCC2` [Compound A3, 3,5-dimethyl-4-((2-((1-(4-(methylsulfonyl)benzyl)piperidin-4-yl)amino)-6,7-dihydrothieno[3,2-d]pyrimidin-4-yl)oxy)benzonitrile], the CC50 in the series on mock-infected MT-4 cells turned out to be 11900 ± 5570 nM. Also, in series [2], the EC50 was 46.6 ± 7.8 nM and the “SI RES056” value came to 257. In the series with WT HIV-1 strain (IIIB), the “SI IIIB” value worked out at 2025.

`Cc1cc(C#N)cc(C)c1Oc1nc(NC2CCN(Cc3ccc(C(N)=O)cc3)CC2)nc2c1COC2` [Compound B2, 4-((4-((4-(4-cyano-2,6-dimethylphenoxy)-5,7-dihydrofuro[3,4-d]pyrimidin-2-yl)amino)piperidin-1-yl)methyl)benzamide] showed a half-maximal cytotoxic concentration (CC50) at 5 days in series [1] above 200000 nM. The same compound had a 50% cytotoxic concentration (CC50) in the series on mock-infected MT-4 cells above 250000 nM. For the same compound, in series [2], the 50% effective concentration (EC50) came out at 41.5 ± 9.9 nM and the “SI RES056” value is above 6039. For the same compound, the concentration for a half-maximal effect (EC50) in the series with WT HIV-1 strain (IIIB) (Human immunodeficiency virus 1, IIIB, MT4, read-out: EC50 IIIB) is 2 nM.

In turn, `Cc1cc(C#N)cc(C)c1Oc1nc(NC2CCN(Cc3ccc(S(N)(=O)=O)cc3)CC2)nc2c1CSC2` [Compound D1, 4-((4-((4-(4-cyano-2,6-dimethylphenoxy)-5,7-dihydrothieno[3,4-d]pyrimidin-2-yl)amino)piperidin-1-yl)methyl)benzenesulfonamide] returned a CC50 in the series with mock-infected MT-4 cells of 26600 ± 1960 nM. Also, in series [2], the EC50 worked out at 734 ± 337 nM and the “SI RES056” value was 36. Moreover, in the series on WT HIV-1 strain (IIIB), the “SI IIIB” value is recorded as 715.
